# Target: T1, human V1a receptor (Homo sapiens, UniProt P37288)
# T1 construct: expressed in transfected cells; host or cells: HEK293 cells, transiently transfected; cell membranes
# Assay: human V1a receptor binding studies (3H-Vasopressin, SPA beads)
# Conditions: membranes of HEK293 cells transiently transfected with human V1a receptor, Ki by Cheng-Prussoff from IC50, read-out: pKi hV1a (converted)
# Outline: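 Membranes from transiently transfected HEK293 cells expressing cloned human V1a receptor, on yttrium silicate SPA beads, competed against 4 nM 3H-vasopressin (added stock concentration) in Tris buffer with NaCl, KCl, CaCl2, MgCl2 for 1 h at room temperature. Nonspecific binding with cold vasopressin; IC50 by nonlinear fit, Ki via Cheng-Prusoff.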
# T1 sequence (P37288 whole entry): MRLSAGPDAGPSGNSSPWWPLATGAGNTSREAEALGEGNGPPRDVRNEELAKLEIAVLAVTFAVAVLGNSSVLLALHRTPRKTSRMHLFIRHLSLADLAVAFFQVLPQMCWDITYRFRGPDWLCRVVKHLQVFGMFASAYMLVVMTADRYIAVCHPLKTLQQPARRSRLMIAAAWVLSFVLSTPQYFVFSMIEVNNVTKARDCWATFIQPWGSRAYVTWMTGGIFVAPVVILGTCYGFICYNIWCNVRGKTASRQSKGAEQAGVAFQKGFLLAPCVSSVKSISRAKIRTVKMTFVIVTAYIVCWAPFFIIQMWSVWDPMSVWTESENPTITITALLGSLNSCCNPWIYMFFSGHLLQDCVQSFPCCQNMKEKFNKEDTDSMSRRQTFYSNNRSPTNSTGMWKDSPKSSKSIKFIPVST
row,SMILES,Ki
1,"O=C1N=C(N2CCC3(CC2)OCc2ccccc23)OC12C[C@H]1COC[C@H]1C2 (stereo partly shown) [Example 144, 2′-(1′H,3H-Spiro[2-benzofuran-1,4′-piperidin]-1′-yl)-3a,4,6,6a-tetrahydro-1H,3H,4′H-spiro[cyclopenta[c]furan-5,5′-[1,3]oxazol]-4′-one]",79.4 nM
2,"O=C1N=C(N2CCC3(CC2)OCc2ccccc23)O[C@]12C[C@H]1CC(F)(F)C[C@H]1C2 [Example 146, 5′,5′-Difluoro-2-(1′H,3H-spiro[2-benzofuran-1,4′-piperidin]-1′-yl)-3′,3a′,4′,5′,6′,6a′-hexahydro-1′H,4H-spiro[1,3-oxazole-5,2′-pentalen]-4-one]",3.98 nM
3,"O=C1N=C(N2CCC3(CC2)OCc2ccccc23)OC12C[C@@H]1OS(=O)O[C@@H]1C2 (stereo partly shown) [Example 147, 2′-(1′H,3H-Spiro[2-benzofuran-1,4′-piperidin]-1′-yl)-3a,4,6,6a-tetrahydro-4′H-spiro[cyclopenta[d][1,3,2]dioxathiole-5,5′-[1,3]oxazol]-4′-one 2-oxide]",158 nM
4,"O=C1N=C(N2CCC3(CC2)c2ccccc2CS3(=O)=O)OC12Cc1ccccc1C2 [Example 150, 2′-(2,2-Dioxido-1′H,3H-spiro[2-benzothiophene-1,4′-piperidin]-1′-yl)-1,3-dihydro-4′H-spiro[indene-2,5′-[1,3]oxazol]-4′-one]",0.251 nM

# Source: patent US9828385B2, “Spiro-oxazolones” (Hoffmann-La Roche Inc., priority 2014, dated 2017)
